{
  "source": "patent US6645986B2",
  "about": "(Pfizer Products, Inc., priority 2000, dated 2003)",
  "origin": "cited, not measured here",
  "details": "compared with the anhydrous mesylate salt",
  "note": "Structures can show the parent of a compound that is named as a salt.",
  "data": [
    {"compound": "C[C@@H]([C@@H](O)c1ccc(O)cc1)N1CCC(O)(c2ccccc2)CC1", "note": "[mesylate salt trihydrate, (1S,2S)-1-(4-hydroxyphenyl)-2-(4-hydroxy-4-phenylpiperidin-1-yl)-1-propanol mesylate trihydrate]", "values": [
      {"measurement": "stability of crystalline form", "value": "more stable crystalline form than the anhydrous mesylate salt"}
    ]}
  ]
}
